Patent US12180461B2 (priority 2018, dated 2024)
Values after ≈ are worked out from the molar mass of the structure shown. Read-outs that look alike come from different tables or passages of the source.

Experiments:
[1] = system: Legionella pneumophila isolates; assay: microbe, parasite or virus in culture; assay type: cell-based; details: for MIC50 / MIC90: Legionella pneumophila; for MIC50: read-out: MIC50 (average); for MIC90: read-out: MIC90 (average)
[2] = system: Staphylococcus aureus (ATCC strain 29213); assay: MIC of quality control strain on Mueller-Hinton agar and on Lasarus medium; assay type: cell-based
[3] = system: various strains of L. pneumophila; assay type: cell-based
Legionella = assay type: cell-based
rats = details: rat, in vivo, po
[4] = 92 Legionella pneumophila isolates on Lasarus solid medium
[5] = ATCC29213, S. aureus ATCC 29213 on Lasarus medium, read-out: MIC100 (on Lasarus medium)
[6] = ATCC29213, S. aureus ATCC 29213 on standard Mueller-Hinton agar, read-out: MIC100 (on M-Hinton)
[7] = average across 92 Legionella pneumophila isolates on Lasarus solid medium

CC1(C)S[C@@H]2[C@H](NC(=O)[C@H](N)c3ccccc3)C(=O)N2[C@H]1C(=O)O [Ampacilin]
MIC50 (average) [1]: 8 µg/mL (≈ 22.9 µM)
MIC90 (average) [1]: 32 µg/mL (≈ 91.6 µM)
Ranges (MIC100) [1]: 1 to 32 µg/mL

CC[C@H]1OC(=O)[C@H](C)[C@@H](O[C@H]2C[C@@](C)(OC)[C@@H](O)[C@H](C)O2)[C@H](C)[C@@H](O[C@@H]2O[C@H](C)C[C@H](N(C)C)[C@H]2O)[C@](C)(O)C[C@@H](C)CN(C)[C@H](C)[C@@H](O)[C@]1(C)O [Azithromycin]
Ranges (MIC100) [1, 4]: 0.008 to 0.25 µg/mL
MIC50 [1]: 0.03 µg/mL (≈ 0.0401 µM)
MIC90 [1]: 0.125 µg/mL (≈ 0.167 µM)
MIC [2, 5]: 2 µg/mL
MIC [2, 6]: 2 µg/mL
number of strains that could grow (on average) ([3]; BCYE, antibiotic 0.25 μg/ml): more than 20 strains
number of strains that could grow (on average) ([3]; BCYE, antibiotic 0.5 μg/ml): > 5 strains
number of strains tested that could grow (on average) ([3]; Lasarus medium, antibiotic 0.03 μg/ml): ~20 strains
number of strains tested that could grow ([3]; Lasarus medium, antibiotic 0.125 μg/ml): None
number of strains that could grow (on average) ([3]; medium (Lasarus), antibiotic 0.06 μg/ml): less than 15 strains

[Ba+2].[Cl-].[Cl-] [BaCl2, barium chloride]
MIC50 (Legionella): 4 mM
MIC90 (Legionella): 9 mM
LD50 (rats): 78 mg/kg

[Ca+2].[Cl-].[Cl-] [CaCl2, calcium chloride]
MIC50 (Legionella): 9 mM
MIC90 (Legionella): 18 mM
LD50 (rats): 1000 mg/kg

O=C(N[C@H](CO)[C@H](O)c1ccc([N+](=O)[O-])cc1)C(Cl)Cl [Chloramphenicol]
Ranges (MIC100) [1, 4]: 0.25 to 1 µg/mL
MIC50 [1]: 0.5 µg/mL (≈ 1.55 µM)
MIC90 [1]: 0.5 µg/mL (≈ 1.55 µM)
MIC [2, 5]: 4 µg/mL
MIC [2, 6]: 4 µg/mL

O=C(O)c1cn(C2CC2)c2cc(N3CCNCC3)c(F)cc2c1=O [Ciprofloxacin]
Ranges (MIC100) [1, 4]: 0.008 to 0.06 µg/mL
MIC50 [1]: 0.03 µg/mL (≈ 0.0905 µM)
MIC90 [1]: 0.06 µg/mL (≈ 0.181 µM)

[Cl-].[Cs+] [CsCl, caesium chloride]
MIC50 (Legionella): 18 mM
MIC90 (Legionella): 37 mM
LD50 (rats): 2600 mg/kg

C[C@H]1COc2c(N3CCN(C)CC3)c(F)cc3c(=O)c(C(=O)O)cn1c23 [Levofloxacin]
Ranges (MIC100) [1, 4]: 0.008 to 0.06 µg/mL
MIC50 [1]: 0.03 µg/mL (≈ 0.083 µM)
MIC90 [1]: 0.06 µg/mL (≈ 0.166 µM)
MIC [2, 5]: 0.25 µg/mL
MIC [2, 6]: 0.25 µg/mL
number of strains that could grow (on average) ([3]; BCYE, antibiotic 1 μg/ml): more than 25 strains
number of strains that could grow (on average) ([3]; BCYE, antibiotic 2 μg/ml): more than 15 strains
number of strains tested that could grow (on average) ([3]; Lasarus medium, antibiotic 0/03 μg/ml): ~30 strains

[Cl-].[Li+] [LiCl, lithium chloride]
MIC50 (Legionella): 75 mM
MIC90 (Legionella): 75 mM
LD50 (rats): 526 mg/kg

[Cl-].[Cl-].[Mg+2] [MgCl, magnesium chloride]
MIC50 (Legionella): 37 mM
MIC90 (Legionella): 75 mM
LD50 (rats): 2800 mg/kg

[Cl-].[Na+] [NaCl, sodium chloride]
MIC50 (Legionella): 150 mM
MIC90 (Legionella): 150 mM
LD50 (rats): 3000 mg/kg

[Cl-].[Rb+] [RbCl, rubidium chloride]
MIC50 (Legionella): 150 mM
MIC90 (Legionella): 150 mM
LD50 (rats): 4440 mg/kg

CO[C@H]1/C=C/O[C@@]2(C)Oc3c(C)c(O)c4c(O)c(c(/C=N/N5CCN(C)CC5)c(O)c4c3C2=O)NC(=O)/C(C)=C\C=C\[C@H](C)[C@H](O)[C@@H](C)[C@@H](O)[C@@H](C)[C@H](OC(C)=O)[C@@H]1C [Rifampacin]
Ranges (MIC100) [1, 4]: 0.002 to 0.008 µg/mL
MIC50 [1]: 0.004 µg/mL (≈ 0.00486 µM)
MIC90 [1]: 0.008 µg/mL (≈ 0.00972 µM)
MIC [2, 5]: 0.016 µg/mL
MIC [2, 6]: 0.016 µg/mL
number of strains that could grow (on average) ([3]; BCYE, antibiotic 0.06 μg/ml): more than 30 strains
number of strains that could grow (on average) ([3]; BCYE, antibiotic 0.125 μg/ml): more than 15 strains
number of strains tested that could grow (on average) ([3]; Lasarus medium, antibiotic 0.004 μg/ml, quadruplicate): ~35 strains
number of strains that could grow (on average), reduced number ([3]; medium, antibiotic concentration printed as 0.004 μg/ml (second mention)): less than 15 strains

[Cl-].[Cl-].[Sr+2] [SrCl, strontium chloride]
MIC50 (Legionella): 18 mM
MIC90 (Legionella): 18 mM
LD50 (rats): 2250 mg/kg

CN(C)[C@@H]1C(O)=C(C(N)=O)C(=O)[C@@]2(O)C(O)=C3C(=O)c4c(O)cccc4[C@@](C)(O)[C@H]3C[C@@H]12 [Tetracycline]
Ranges (MIC100) [1, 4]: 32 to 128 µg/mL
MIC50 [1]: 128 µg/mL (≈ 288 µM)
MIC90 [1]: 128 µg/mL (≈ 288 µM)

Gentamycin
Ranges (MIC100) [1, 4]: 0.06 to 1 µg/mL
MIC50 (average) [1, 7]: 0.25 µg/mL
MIC90 (average) [1, 7]: 0.5 µg/mL

beryllium sulfate [BeSO4]
MIC50 (Legionella): 4 mM
MIC90 (Legionella): 4 mM
